This is an account of results in patent US11773368B2, “Culture method for differentiating primordial germ cells into functionally mature oocytes” (TOKYO UNIVERSITY OF AGRICULTURE, priority 2015, dated 2023).

The structures appear in SMILES notation.

In the experiment the test system is primordial germ cells in gonads from female mouse fetuses at 12.5 dpc. In words: In vitro organ culture of gonad (secondary follicle formation). Particulars: (vii) FBS/1 μM MPP group, 1 μM day 5-11. In kind it is cell-based. The procedure: For the medium of the organ culture, the basal medium supplemented with FBS (Gibco, Thermo Fisher Scientific Inc.), SPS (SAGE In vitro Fertilization), the estrogen receptor antagonist, 7α, 17β-[9-([4,4,5,5,5-pentafluoropentyl]sulfinyl)nonyl]estra-1,3,5(10)-triene-3,17-diol; ICI 182,780 (ICI; Tocris Bioscience), 4-hydroxytamoxifen (Sigma-Aldrich), and MPP (Methylpiperidino pyrazole; Cayman Chemical) were added at the indicated concentrations for each experimental group below. The α-MEM medium (Gibco, Thermo Fisher Scientific Inc.) supplemented with 1.5 mM 2-O-α-d glucopyranosyl-1-ascorbic acid (Tokyo Chemical Industry), 10 units/mL penicillin, and 10 μg/mL streptomycin (Sigma-Aldrich) was used as a basal medium (referred to the basal medium hereafter as α-MEM).
ICI 182,780 and 4-hydroxytamoxifen was prepared as follows. ICI 182,780 and 4-hydroxytamoxifen was diluted to 100 mM using DMSO, and cryopreserved stock was prepared. MPP was diluted to 10 mM using DMSO, and cryopreserved stock was prepared. 1 mM solutions of ICI 182, 780 and 4-hydroxytamoxifen were prepared by diluting the 100 mM stocks 100-fold with DMSO just before use and were added to the medium at the indicated final concentrations for each experimental group. MPP was added to the medium at 1 μM as the final concentration just before use.
The gonads for the organ culture were collected with mesonephros or without mesonephros from female mouse fetuses at 12.5 dpc (FIG. 1a). 2.2 ml of the medium was added to each 6-well culture plate used for the organ culture. Transwell®-COL membrane (3.0-μm pore size, 24-mm diameter; Corning) was put on each well of the 6-well culture plate. The gonads were transferred on the membrane and were cultured for 17 days at 37° C. under 5% CO2 and 95% air. Approximately half of the medium in each well was replaced with fresh medium every other day. In the example in which the gonad was cultured with mesonephros, mesonephros was removed from the gonad at day 7 of the organ culture.
The in vitro organ culture of the gonads was performed according to the following conditions described below. The gonads were cultured for total 17 days in each conditions below (FIG. 2):
(i) culture for the complete 17 days period in 10% FBS containing α-MEM (α-MEM+FBS; FBS group);
(ii) culture for the complete 17 days period in 10% SPS containing α-MEM (α-MEM+SPS; SPS group);
(iii) culture for the complete 17 days period in 10% KSR containing α-MEM (α-MEM+KSR; KSR group);
(iv) culture in 10% FBS containing α-MEM for 4 days with a shift to 10% SPS containing α-MEM for 6 days from day 5 and a shift to 10% FBS containing α-MEM until day 17 from day 11 (αMEM+FBS/SPS; FBS/SPS group);
(v) culture in 10% FBS containing α-MEM for 4 days with a shift to 10% FBS containing α-MEM with the addition of 10 nM, 100 nM, 1 μM, 5 μM, or 10 μM (final concentration) ICI for 6 days from day 5 and a shift to 10% FBS containing α-MEM until day […] (αMEM+FBS/10 nM ICI; FBS/10 nM ICI group, αMEM+FBS/100 nM ICI; FBS/100 nM ICI group, αMEM+FBS/1 μM ICI; FBS/1 μM ICI group, αMEM+FBS/5 μM ICI; FBS/5 μM ICI group, or αMEM+FBS/10 μM ICI; FBS/10 μM ICI group);
(vi) culture in 10% FBS containing α-MEM for 4 days with a shift to 10% FBS containing α-MEM with the addition of 1 μM (final concentration) 4-hydroxytamoxifen for 6 days from day 5 and a shift to 10% FBS containing α-MEM until day 17 from day 11 (αMEM+FBS/1 μM Tamoxifen; FBS/1 μM Tamoxifen group);
(vii) culture in 10% FBS containing α-MEM for 4 days with a shift to 10% FBS containing α-MEM with the addition of 1 μM (final concentration) MPP for 6 days from day 5 and a shift to 10% FBS containing α-MEM until day 17 from day 11 (αMEM+FBS/1 μM MPP; FBS/1 μM MPP group).
Vitrification and warming were conducted as follows by reference to Wang, X. et al., “Successful in vitro culture of pre-antral follicles derived from vitrified murine ovarian tissue: oocyte maturation, fertilization, and live births.” Reproduction 141, 183-191 (2011). […]

Turning to `Cc1c(-c2ccc(O)cc2)nn(-c2ccc(O)cc2)c1-c1ccc(OCCN2CCCCC2)cc1` [MPP, 4-[1-(4-hydroxyphenyl)-4-methyl-5-[4-[2-(1-piperidinyl)ethoxy]phenyl]-1H-pyrazol-3-yl]-phenol], the “secondary follicles collected from one ovary” value was found to be 15.
